Data reported in patent US20050238581A1, “Dynamic hepatic recycling glucose tolerance test” (priority 2002, published 2005).

Columns and labels:
[1] = [1, 2-^13C2]-glucose HR-GTT in C57BL/6 and PPARα KO mice; format: in vivo, C57BL/6 mice and PPARα KO mice; conditions: for glucose recycling rate constant (kHR), slope of M1/M2 ratio against time: regression analysis
Method: Wild-type (C57BL/6) mice and PPARα KO mice were obtained. In this example, glucose was labeled with either stable isotopes of [1, 2-^13C2]-glucose, or [2-^2H]- and [6, 6-^2H2]-glucose and all isotopes were 99% enriched. The [1, 2-^13C2]-glucose, or a 1:1 mixture of [2-^2H]- and [6, 6-^2H2]-glucose, was then administered at 1 mg glucose/gm body weight by intraperitoneal injection. Blood was sampled at 0, 0.5, 1, 2, and 3 hours for [1, 2-^13C2]-glucose isotopomer analysis, and 0.5, 1 and 2 hours for deuterated glucose isotopomer analysis. Plasma glucose and lactate concentrations were determined by the use of a COBAS MIRA analyzer. All isotopomeric determinations were performed on a Hewlett Packard Mass Selective Detector (model 5973A) connected to an HP Gas Chromatograph (model 6890) using chemical ionization (CI) with 20% methane. The re-cycling of hepatic glucose, leading to the appearance of M1 glucose in blood, occurs when the glucose traverses the glucose<->G-6-P, pentose phosphate pathway, and possibly the TCA cycle. […] The slope of the increase in this ratio gives the in vivo glucose dependent futile re-cycling rate constant of glucose through G-6-P.

[2] = intraperitoneal hepatic recycling glucose tolerance test (HRGTT) with [1, 2-^13C2]-glucose load; format: in vivo, C57BL6 mice; conditions: for decrease in total amount of M2 glucose: compared to amount appearing in plasma between 0-60 minutes
Method: Stable isotopes of the M2 isotopomer glucose was administered at 1 mg glucose/gm body weight by intraperitoneal injection. Animals were euthanized by an overdose of isoflurane anesthesia, and tissue from liver and skeletal muscle were rapidly dissected free, snap-frozen in liquid nitrogen, and stored at −80° C. until processed for isolation of RNA or glycogen. Cytosolic protein was extracted from the liver tissue after homogenization with 10 strikes in lysis buffer containing 0.25 M sucrose, I OmM Tris-HCL(pH7.4), 3 mM MgCL2, 0.1 mM PMSF, 20 mM NaF, 1 mM Na3VO4, 1 MM Na4P207, 1 μg/ml of leupeptin/aprotinin/pepstatin. The resulting cell lysate was filtered with 4 layers of cheesecloth. Nuclei were pelleted by centrifugation at 1000 g for 10 min. Mitochondria were precipitated by centrifugation at 15,000 g for 20 min from the supernatant. The cytosolic fraction was isolated as the supernatant obtained from last ultra-centrifugation at 100,000 g at 4° C. for 1 hr. Protein concentration from cytosol were measured by using an absorbance at 595 run (BCA kit from Pierce). 60 1 μg of protein extracts from cytosol were separated by 10% SDS-PAGE. The membrane blots were incubated with anti-GK at 1:2500 (v/v), anti-G6PDH at 1:2000 (v/v), anti-PEPCK at 1:500 (v/v), and anti-p-actin at 1:2000 (v/v), for either 1 hr in western washing buffer at RT or overnight at 4 C after blocking. The blots were hybridized with secondary antibodies coupled to horseradish peroxidase for 40 to 60 min at RT. Immunodetection was accomplished using enhanced chemiluminescence. Density of each band was determined by scanning the exposed film. The time course of glucose and lactate isotopomers in plasma, and glucose isotopomers in liver glycogen was determined using gas chromatography/mass spectrometry. The M1 glucose isotopomer, in which ^13C glucose can occupy the carbon 1 position, was produced via the action of the oxidative limb of the pentose phosphate pathway (PPP) on the administered M2 glucose isotopomer, and its re-entry into the gluconeogenic pathway via the non-oxidative limb of the PPP. The absorption of administered glucose was monitored by the time course of M2 isotopomer, and hepatic glucose recycling by the time course of M1 isotopomer of glucose.

- fall in plasma M2 levels, faster in PPARα KO than in C57BL/6 (overall glucose clearance) ([1]; between 0.5 hours and 3.0 hours, p<0.001): 32%
Structure (SMILES): OC[C@H]1OC(O)[C@H](O)[C@@H](O)[C@@H]1O (stereo partly shown) [[1,2-^13C2]-glucose]
- glucose recycling rate constant (kHR), slope of M1/M2 ratio against time ([1]; C57BL/6 mice): 0.1086 ± 0.0049 per hour
- glucose recycling rate constant (kHR), slope of M1/M2 ratio against time ([1]; PPARα KO mice, p<0.025 vs C57BL/6): 0.0790 ± 0.0064 per hour
- decrease in total amount of M2 glucose ([2]; 60-120 minutes): 30%
- decrease in total amount of M2 glucose ([2]; 120-180 minutes): 65%
- plasma M2 enrichment after steady decline ([2]; after the first 60 minutes, ip 1 mg/gm): 20.1±1.3%
- enrichment of [1, 2-^13C2]-glucose (M2) in the plasma glucose pool ([2]; enrichment rapidly achieved after ip injection of 1 mg/gm body weight): 55±1.0%
- contribution of direct pathway from glucose uptake to glycogen glucose deposited ([2]; glucose load 1 mg glucose/g body weight): less than 5%
- M2 isotopomer enrichment in liver glycogen glucose, start of decrease ([2]; liver glycogen, earlier time (2 hours)): 1.9%
- M2 isotopomer enrichment in liver glycogen glucose, end of decrease ([2]; liver glycogen, later time (3 hours)): 0.8%
